The values below come from article PMC5955586, “Transport of enniatin B and enniatin B1 across the blood-brain barrier and hints for neurotoxic effects in cerebral cells” (PLoS ONE, 2018).

pIC50: −log10 of the molar value. Read-outs that look alike come from different tables or passages of the source.

One data set relates to caspase-3. As to the kind of experiment: Caspase-3 activity in CCF-STTG1 lysates. The settings on record: 48 h. Type of data set: cell-based, human. The procedure: For studying caspase-3 activity CCF-STTG1 cells were seeded in 12 well tissue culture plates in a cell density of 2.25 × 10^5 cells/well. The cells were grown for 24 h until a confluence of at least 70% was reached, then the medium was changed to serum free medium (RPMI 1640 medium supplemented with 100 U/mL penicillin, 100 μg/mL streptomycin and 2 mM L-glutamine). Concentrations from 0.1 μM to 2.5 μM were chosen to prevent strong cytotoxic effects, which might interfere with the endpoint of interest. 24 h after adaption to serum free conditions, cells were incubated with ENN B and ENN B1. Caspase-3 activity was determined in lysates. […] 33 μL reaction solution were added to 30 μL of the supernatant and incubated for 1 and 2 h at 37°C, 5% CO2 and saturated humidified atmosphere and then measured at λex = 405 nm and λem = 520 nm (Infinite M200 PRO microplate reader). […] The results were calculated as μmol AFC/μg protein and normalized to the solvent treated control (ACN 0.25%).
For quantitation of the total protein content a bicinchoninic acid (BCA) assay kit (Sigma-Aldrich GmbH, Seelze, Germany) was applied. […] After that the absorbance was measured at 560 nm with a Infinite M200 PRO microplate reader (Tecan, Crailsheim, Germany).

Data set [1] in a line: Transfer across PBCEC monolayer on Transwell filters (BBB model). The data set is classed as in vitro ADME, porcine. The following applies: pig; apical to basolateral, 1 μM apical application (passive transport); read-out: Permeability coefficient. The procedure:
(§1) In accordance with the thawing and seeding procedure for PBCEC, described for the viability test, 500 μL PBCEC suspension (2.5 × 10^5 cells/well) in culture medium were seeded on rat tail collagen coated 12-well Transwell® microporous polycarbonate filter inserts (Corning, Wiesbaden, Germany; growth area 1.12 cm^2, pore size 0.4 μm) in the upper (apical) compartment of the filter system. The lower (basolateral) compartment was filled with 1500 μL complete medium. This two-compartment system was used as model system for the BBB with the apical compartment reflecting the “blood”-side and the basolateral compartment serving as the “brain”-side. After 48 h, the complete medium was replaced by serum free medium. Additionally, 550 nM hydrocortisone (Sigma-Aldrich, Steinheim, Germany) was supplemented to urge differentiation of cells. After another 48 h, experiments studying barrier integrity and permeability were performed.
(§2) Before starting each experiment, the TEER values and the electrical capacitance of all cell layers were measured via cellular impedance spectroscopy (cellZscope®, nanoAnalytics, Münster, Germany). […] TEER values relate to the constitution of the tight junctions limiting paracellular transfer of compounds. In addition to the TEER, electrical capacitances (CCl) were monitored for 48 h. Cellular phospholipid bilayers act like an electrical capacitor and also contribute to the cellular impedance. Changes of the CCl value give information about the integrity of the cell monolayer. In this experiment, a parallel set up was applied. For each treatment, one triplicate of filters was monitored via cellular impedance spectroscopy over the course of 48 h using a cellZscope® device–here, the basolateral compartment was prepared with 1650 μL serum free medium and the volume in the apical compartment was filled to 760 μL (ratio 1:2.17). Another triplicate for the same incubation conditions was kept in Transwell® filter cell culture multiple well plates (12 well format) over the course of 48 h. In the multiple well plates the ratio between the apical and the basolateral compartment was 1:3, therefore the starting volume in the apical compartment is 500 μL and 1500 μL in the basolateral compartment. Here, samples for quantitation of transfer of enniatins across the barrier were drawn after 1, 2.5, 6.5, 18, 24, 28, 42 and 48 hours in this given ratio i.e. 30 μL apical and 90 μL basolateral. After 48 h, the final TEER values of the filters from the multiple well plate were measured to ensure the stability of the cell layer throughout the experiment. To double check the integrity of the barrier, lucifer yellow (LY, 50 μM), as a paracellular transfer marker, was applied. The amount of LY found in the basolateral compartment after 1 h was measured at λex = 430 nm and λ em = 540 nm.
(§3) After the completion of the experiment, the polycarbonate filter membranes were extracted. The filters were cut out and extracted with ACN/H2O (8+2, v/v) via ultrasonication for 1 h. The extract was evaporated (vacuum concentrator BA-VC-200 H, Bachofer GmbH + Co KG, Reutlingen, Germany) and reconstituted in 200 μL of ACN/H2O (8+2, v/v). The obtained samples and filter extracts were analyzed and quantitated with high performance liquid chromatography-tandem mass spectrometry (HPLC-MS/MS).
(§4) The quantitation of ENN B and ENN B1 by HPLC-MS/MS was carried out using an 1100 series (Agilent Technologies, Santa Clara, USA) high performance liquid chromatography (HPLC) system and API 3200 (AB SCIEX Germany GmbH, Darmstadt, Germany) mass spectrometer. Both devices were operated with Analyst Version 1.6.2 software (AB SCIEX Germany GmbH, Darmstadt, Germany). A Synergi 4 μm Fusion-RP 80 Å 50 × 2.0 mm (Phenomenex) equipped with a Synergy 4 μm Fusion-RP 4 × 2.0 mm (Phenomenex) precolumn was used and maintained at 40°C. A binary gradient consisting of ACN (A) and water (B) (both containing 0.1% formic acid) was applied. […]

For another data set, the system named is PBCEC monolayer. The description is as above. Type of data set: in vitro ADME, porcine. The settings on record: for active transport: 200 nM equimolar on both sides; for amount of apically applied compound found in basolateral compartment: after 6.5 h; for amount in filter membrane with attached PBCEC relative to applied amount: extraction after 48 h. The procedure:
as §1, §2, §3, §4

For the next data set, the system named is Caco-2 cells. On the set-up: method as in PMID 21640785. The settings on record: cited from earlier work.
On the set-up of data set [2]: method as in PMID 27349679. The settings on record: mice; cited from earlier work.

Take `CC[C@H](C)[C@H]1C(=O)O[C@H](C(C)C)C(=O)N(C)[C@@H](C(C)C)C(=O)O[C@H](C(C)C)C(=O)N(C)[C@@H](C(C)C)C(=O)O[C@H](C(C)C)C(=O)N1C` [ENN B1, enniatin B1]: the “maximum increase of caspase-3 activity (relative to solvent control)” value in the data set on caspase-3 (CCF-STTG1, 1 μM) was 160%. For the same compound, the Papp A→B at 1 μM in data set [1] is 14.6 ×10⁻⁶ cm/s. In the data set with PBCEC monolayer, the active transport entry is “minor enrichment in the apical compartment” and the “amount in filter membrane with attached PBCEC relative to applied amount” value is on record as 2.7%. Besides, the “amount transferred to basolateral compartment” value with PBCEC monolayer (1 μM (0.5 nmol) apical, 6.5 h to 48 h) is reported as “up to 55%”. Further, the “amount of apically applied compound found in basolateral compartment” value in the data set with PBCEC monolayer (1 μM (0.5 nmol) apical) is on record as 44%. Also, in the data set on Caco-2 cells (read-out: IC50), the pIC50 was 4.94. In data set [2], the “brain tissue distribution in the parenchyma” value is recorded as 95% and the “remaining in the capillaries” value is 5%.

Regarding `CC(C)[C@H]1C(=O)O[C@H](C(C)C)C(=O)N(C)[C@@H](C(C)C)C(=O)O[C@H](C(C)C)C(=O)N(C)[C@@H](C(C)C)C(=O)O[C@H](C(C)C)C(=O)N1C` [ENN B, enniatin B], in the data set on caspase-3 (CCF-STTG1, 2.5 μM), the “increase of caspase-3 activity compared to solvent control” value amounted to 2.7 fold. The Papp A→B at 1 μM in data set [1] was determined as 14.9 ×10⁻⁶ cm/s. For the same compound, in the data set with PBCEC monolayer, the active transport result is listed as “minor enrichment in the apical compartment” and the “amount in filter membrane with attached PBCEC relative to applied amount” value is reported as “below 1%”. In the data set on PBCEC monolayer (1 μM (0.5 nmol) apical), the “plateau of amount in basolateral compartment” value is given as 70 ± 4% and the “amount of apically applied compound found in basolateral compartment” value was found to be 53%. For the same compound, the IC50 result in the data set with Caco-2 cells is given as “no IC50 could be calculated”. Further, in data set [2], the “brain tissue distribution in the parenchyma” value is listed as 95% and the “remaining in the capillaries” value is 5%.
